Reference: PMC7083837 (Nature Communications, 2020)
Several values for one entry are separate records, joined by “and”; a condition that tells them apart may be missing. Equal entries are not always repeated.

How the values were obtained:
SERT F556R [1] = target: T1, SERT F556R (Homo sapiens, UniProt P31645, F556R); assay: [3H]5-HT uptake in intact COS-7 cells; format: cell-based; conditions: SERT F556R
T1 construct: expressed in transfected cells; host or cells: COS-7

SERT R104K = target: T2, SERT R104K (Homo sapiens, UniProt P31645, R104K); assay: [3H]IMI dissociation rate assay; format: binding
T2 construct: expressed in transfected cells; host or cells: COS-7
T2 sequence (P31645 whole entry R104K): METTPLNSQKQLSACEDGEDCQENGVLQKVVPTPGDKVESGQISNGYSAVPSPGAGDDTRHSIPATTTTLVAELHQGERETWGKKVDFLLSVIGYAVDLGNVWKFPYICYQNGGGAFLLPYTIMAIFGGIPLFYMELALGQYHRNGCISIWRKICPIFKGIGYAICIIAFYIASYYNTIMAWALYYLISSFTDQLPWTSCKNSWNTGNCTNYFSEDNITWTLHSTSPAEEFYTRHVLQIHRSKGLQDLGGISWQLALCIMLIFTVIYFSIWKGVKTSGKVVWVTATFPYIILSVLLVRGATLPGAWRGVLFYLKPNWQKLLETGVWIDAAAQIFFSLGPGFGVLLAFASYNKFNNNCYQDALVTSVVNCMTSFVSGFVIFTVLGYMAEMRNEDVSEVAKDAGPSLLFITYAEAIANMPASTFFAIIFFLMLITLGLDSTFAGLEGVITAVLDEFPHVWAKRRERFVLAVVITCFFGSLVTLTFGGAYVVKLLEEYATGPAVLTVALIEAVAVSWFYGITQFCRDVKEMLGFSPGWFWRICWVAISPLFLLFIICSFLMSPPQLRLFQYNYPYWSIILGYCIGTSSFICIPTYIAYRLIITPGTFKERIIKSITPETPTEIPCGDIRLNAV
Procedure: (§1) All mutations were confirmed by DNA sequencing. The used primers were
(§2) The allosteric potency was calculated as previously described.

SERT A486E-K490A = target: T3, SERT A486E-K490A (Homo sapiens, UniProt P31645, A486E/K490A); assay: [3H]IMI dissociation rate assay; format: binding
T3 construct: expressed in transfected cells; host or cells: COS-7
T3 sequence (P31645 whole entry A486E/K490A): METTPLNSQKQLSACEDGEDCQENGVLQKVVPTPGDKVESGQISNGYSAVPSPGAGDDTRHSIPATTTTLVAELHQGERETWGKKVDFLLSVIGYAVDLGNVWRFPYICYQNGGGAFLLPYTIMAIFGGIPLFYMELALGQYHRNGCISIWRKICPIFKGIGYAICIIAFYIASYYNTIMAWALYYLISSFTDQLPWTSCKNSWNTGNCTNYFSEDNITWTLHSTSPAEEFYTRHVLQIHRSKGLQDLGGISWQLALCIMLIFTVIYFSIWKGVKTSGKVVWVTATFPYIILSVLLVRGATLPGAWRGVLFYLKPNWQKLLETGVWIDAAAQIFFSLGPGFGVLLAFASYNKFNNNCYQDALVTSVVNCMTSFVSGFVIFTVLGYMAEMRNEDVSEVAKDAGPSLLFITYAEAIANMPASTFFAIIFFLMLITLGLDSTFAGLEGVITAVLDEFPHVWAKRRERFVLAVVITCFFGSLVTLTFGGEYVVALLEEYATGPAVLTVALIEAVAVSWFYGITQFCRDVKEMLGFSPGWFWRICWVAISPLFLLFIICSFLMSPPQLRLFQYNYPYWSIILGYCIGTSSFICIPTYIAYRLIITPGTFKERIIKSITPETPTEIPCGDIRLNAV
Procedure: as §1, §2

SERT F556L = target: T4, SERT F556L (Homo sapiens, UniProt P31645, F556L); assay: [3H]IMI dissociation rate assay; format: binding
T4 construct: expressed in transfected cells; host or cells: COS-7
Procedure: as §1, §2

SERT I179F = target: T5, SERT I179F (Homo sapiens, UniProt P31645, I179F); assay: [3H]IMI dissociation rate assay; format: binding
T5 construct: expressed in transfected cells; host or cells: COS-7
T5 sequence (P31645 whole entry I179F): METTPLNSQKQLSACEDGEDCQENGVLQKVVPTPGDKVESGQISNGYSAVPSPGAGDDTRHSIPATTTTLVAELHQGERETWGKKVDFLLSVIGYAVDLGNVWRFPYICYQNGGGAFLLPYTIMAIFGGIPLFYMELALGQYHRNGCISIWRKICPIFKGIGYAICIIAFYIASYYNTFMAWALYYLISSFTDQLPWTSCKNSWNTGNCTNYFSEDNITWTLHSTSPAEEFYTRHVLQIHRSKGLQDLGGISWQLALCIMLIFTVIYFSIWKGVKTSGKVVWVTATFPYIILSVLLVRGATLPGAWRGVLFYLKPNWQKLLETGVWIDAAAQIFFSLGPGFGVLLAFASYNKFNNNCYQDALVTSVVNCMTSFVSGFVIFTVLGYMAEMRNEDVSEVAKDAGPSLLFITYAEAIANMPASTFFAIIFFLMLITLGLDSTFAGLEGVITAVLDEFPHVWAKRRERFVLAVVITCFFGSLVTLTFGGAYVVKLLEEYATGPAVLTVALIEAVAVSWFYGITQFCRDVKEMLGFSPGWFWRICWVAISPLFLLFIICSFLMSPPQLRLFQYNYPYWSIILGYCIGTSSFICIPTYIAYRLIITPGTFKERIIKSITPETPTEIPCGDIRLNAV
Procedure: as §1, §2

SERT D328N = target: T6, SERT D328N (Homo sapiens, UniProt P31645, D328N); assay: [3H]IMI dissociation rate assay; format: binding
T6 construct: expressed in transfected cells; host or cells: COS-7
T6 sequence (P31645 whole entry D328N): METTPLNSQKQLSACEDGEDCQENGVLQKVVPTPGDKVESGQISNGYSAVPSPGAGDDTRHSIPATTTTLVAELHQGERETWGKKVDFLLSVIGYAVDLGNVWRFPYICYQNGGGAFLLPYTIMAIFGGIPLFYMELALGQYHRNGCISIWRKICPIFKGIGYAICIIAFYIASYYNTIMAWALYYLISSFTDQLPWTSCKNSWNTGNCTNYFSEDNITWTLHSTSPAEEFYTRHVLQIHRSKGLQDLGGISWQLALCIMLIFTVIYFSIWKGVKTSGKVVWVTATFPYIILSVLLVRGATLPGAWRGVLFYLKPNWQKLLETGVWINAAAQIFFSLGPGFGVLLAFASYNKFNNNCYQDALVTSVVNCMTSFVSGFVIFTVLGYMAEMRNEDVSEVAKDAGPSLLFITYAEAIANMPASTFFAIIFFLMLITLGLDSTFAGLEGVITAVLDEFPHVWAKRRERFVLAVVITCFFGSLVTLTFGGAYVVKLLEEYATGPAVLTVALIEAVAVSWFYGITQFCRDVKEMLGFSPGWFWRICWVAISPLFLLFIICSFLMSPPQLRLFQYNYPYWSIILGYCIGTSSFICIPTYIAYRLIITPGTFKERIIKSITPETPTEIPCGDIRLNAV
Procedure: as §1, §2

SERT F556R [2] = target: T1, SERT F556R; assay: [3H]IMI dissociation rate assay; format: binding
Procedure: as §1, §2

SERT A331D = target: T7, SERT A331D (Homo sapiens, UniProt P31645, A331D); assay: [3H]IMI dissociation rate assay; format: binding
T7 construct: expressed in transfected cells; host or cells: COS-7
T7 sequence (P31645 whole entry A331D): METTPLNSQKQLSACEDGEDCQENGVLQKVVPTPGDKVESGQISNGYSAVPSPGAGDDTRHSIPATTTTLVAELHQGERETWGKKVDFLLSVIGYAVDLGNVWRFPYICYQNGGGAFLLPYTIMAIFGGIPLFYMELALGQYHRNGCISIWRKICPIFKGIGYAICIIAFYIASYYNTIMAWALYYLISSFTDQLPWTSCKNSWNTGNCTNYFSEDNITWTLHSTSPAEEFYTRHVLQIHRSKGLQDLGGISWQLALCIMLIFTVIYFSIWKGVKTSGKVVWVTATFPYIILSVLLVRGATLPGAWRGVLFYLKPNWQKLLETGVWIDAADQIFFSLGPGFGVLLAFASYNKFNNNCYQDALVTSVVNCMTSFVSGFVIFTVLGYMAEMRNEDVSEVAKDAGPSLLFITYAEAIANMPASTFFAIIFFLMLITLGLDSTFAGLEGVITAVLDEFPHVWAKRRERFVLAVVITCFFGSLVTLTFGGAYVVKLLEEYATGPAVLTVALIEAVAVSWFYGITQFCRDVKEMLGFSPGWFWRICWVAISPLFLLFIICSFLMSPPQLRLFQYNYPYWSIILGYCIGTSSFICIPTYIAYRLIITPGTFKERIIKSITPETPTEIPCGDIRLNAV
Procedure: as §1, §2

SERT A486E = target: T8, SERT A486E (Homo sapiens, UniProt P31645, A486E); assay: [3H]IMI dissociation rate assay; format: binding
T8 construct: expressed in transfected cells; host or cells: COS-7
Procedure: as §1, §2

SERT L406E = target: T9, SERT L406E (Homo sapiens, UniProt P31645, L406E); assay: [3H]IMI dissociation rate assay; format: binding
T9 construct: expressed in transfected cells; host or cells: COS-7
T9 sequence (P31645 whole entry L406E): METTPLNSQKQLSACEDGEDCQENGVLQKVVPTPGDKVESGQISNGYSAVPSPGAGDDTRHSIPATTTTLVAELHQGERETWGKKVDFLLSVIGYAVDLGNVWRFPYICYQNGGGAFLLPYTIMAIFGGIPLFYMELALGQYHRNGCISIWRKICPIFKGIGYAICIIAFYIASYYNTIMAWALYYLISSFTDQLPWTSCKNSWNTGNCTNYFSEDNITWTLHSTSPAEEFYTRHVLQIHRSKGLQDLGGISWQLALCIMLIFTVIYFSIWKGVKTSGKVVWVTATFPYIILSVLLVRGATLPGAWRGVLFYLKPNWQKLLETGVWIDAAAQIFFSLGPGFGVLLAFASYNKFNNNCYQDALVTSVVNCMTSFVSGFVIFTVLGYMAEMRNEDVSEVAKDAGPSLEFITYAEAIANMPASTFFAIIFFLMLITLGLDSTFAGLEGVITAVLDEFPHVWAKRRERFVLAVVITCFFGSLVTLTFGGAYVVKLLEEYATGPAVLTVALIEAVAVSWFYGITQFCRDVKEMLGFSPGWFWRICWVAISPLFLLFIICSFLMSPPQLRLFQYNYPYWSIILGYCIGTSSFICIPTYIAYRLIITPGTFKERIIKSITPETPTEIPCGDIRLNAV
Procedure: as §1, §2

SERT E494K = target: T10, SERT E494K (Homo sapiens, UniProt P31645, E494K); assay: [3H]IMI dissociation rate assay; format: binding
T10 construct: expressed in transfected cells; host or cells: COS-7
T10 sequence (P31645 whole entry E494K): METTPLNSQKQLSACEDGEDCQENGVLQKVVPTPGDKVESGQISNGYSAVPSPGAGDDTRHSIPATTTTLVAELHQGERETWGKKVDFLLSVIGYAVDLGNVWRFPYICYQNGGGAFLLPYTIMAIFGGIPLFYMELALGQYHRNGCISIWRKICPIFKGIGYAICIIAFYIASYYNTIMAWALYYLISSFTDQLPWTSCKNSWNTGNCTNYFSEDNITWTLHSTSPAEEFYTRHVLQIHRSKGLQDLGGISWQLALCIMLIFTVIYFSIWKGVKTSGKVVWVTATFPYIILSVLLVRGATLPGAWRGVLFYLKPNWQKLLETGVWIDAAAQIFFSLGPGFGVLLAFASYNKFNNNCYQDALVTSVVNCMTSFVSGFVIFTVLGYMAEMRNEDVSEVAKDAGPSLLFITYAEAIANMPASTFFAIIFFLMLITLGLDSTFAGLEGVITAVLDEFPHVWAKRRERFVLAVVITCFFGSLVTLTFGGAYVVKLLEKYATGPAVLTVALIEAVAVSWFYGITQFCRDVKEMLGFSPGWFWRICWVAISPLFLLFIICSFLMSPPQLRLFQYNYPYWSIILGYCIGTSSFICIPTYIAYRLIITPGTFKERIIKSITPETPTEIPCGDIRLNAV
Procedure: as §1, §2

T1 sequence (P31645 whole entry F556R): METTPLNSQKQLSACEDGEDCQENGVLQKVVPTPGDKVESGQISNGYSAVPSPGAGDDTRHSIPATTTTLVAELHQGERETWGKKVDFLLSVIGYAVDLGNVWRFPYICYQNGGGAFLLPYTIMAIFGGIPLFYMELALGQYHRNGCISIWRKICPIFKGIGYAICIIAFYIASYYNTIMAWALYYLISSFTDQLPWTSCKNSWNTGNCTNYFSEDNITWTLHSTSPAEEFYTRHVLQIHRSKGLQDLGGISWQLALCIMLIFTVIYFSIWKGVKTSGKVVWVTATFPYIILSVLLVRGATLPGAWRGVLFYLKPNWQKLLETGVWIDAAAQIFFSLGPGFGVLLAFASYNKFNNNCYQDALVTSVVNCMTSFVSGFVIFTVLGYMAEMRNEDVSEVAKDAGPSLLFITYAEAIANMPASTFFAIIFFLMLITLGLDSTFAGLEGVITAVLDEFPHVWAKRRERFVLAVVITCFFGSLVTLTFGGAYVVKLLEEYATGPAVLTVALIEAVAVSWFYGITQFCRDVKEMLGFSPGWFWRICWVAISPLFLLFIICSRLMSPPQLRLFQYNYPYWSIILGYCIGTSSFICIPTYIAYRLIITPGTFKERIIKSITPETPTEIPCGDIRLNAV

`NC(=O)c1ccc2c(c1)CO[C@@]2(CCCN1CCC(c2ccc3ccc(=O)[nH]c3c2)CC1)c1ccc(F)cc1` [Lu AF60097, (S)-1-(4-fluorophenyl)-1-(3-(4-(2-oxo-1,2-dihydroquinolin-7-yl)piperidin-1-yl)propyl)-1,3-dihydroisobenzofuran-5-carboxamide] was tested, and the Ki (SERT F556R [1]) was 260 nM, the “ΔAP (mut/WT), change in allosteric potency relative to SERT WT” value (SERT R104K; R104K, [^3H]IMI dissociation) was 19 and the “[^3H]IMI dissociation relative to control (source data Fig 4B)” value (SERT R104K; R104K, log conc -5.91) was 0.3316 and 0.2892 and 0.4871 and 0.3865. For the same molecule, the “[^3H]IMI dissociation relative to control (source data Fig 4B)” value (SERT R104K; R104K, log conc -6.386) was 0.5872 and 0.4706 and 0.6618 and 0.5459, the “[^3H]IMI dissociation relative to control (source data Fig 4B)” value (SERT R104K; R104K, log conc -6.863) was 0.8956 and 0.6502 and 0.7387 and 0.7045 and the “[^3H]IMI dissociation relative to control (source data Fig 4B)” value (SERT R104K; R104K, log conc -7.34) was 1.0439 and 0.7759 and 0.8174 and 0.7536. For the same molecule, the “[^3H]IMI dissociation relative to control (source data Fig 4B)” value (SERT R104K; R104K, log conc -7.817) was 0.9753 and 0.7981 and 0.836 and 0.9683, the IC50 (SERT R104K; SERT R104K (TM1), read-out: Lu AF60097 allosteric potency ([^3H]IMI dissociation IC50)) was 630 nM and the “ΔAP (mut/WT), change in allosteric potency relative to SERT WT” value (SERT A486E-K490A; A486E-K490A, [^3H]IMI dissociation) was 77. For the same molecule, the “[^3H]IMI dissociation relative to control (source data Fig 4B)” value (SERT A486E-K490A; A486E-K490A, log conc -4.955) was 0.2089 and 0.1837 and 0.2062, the “[^3H]IMI dissociation relative to control (source data Fig 4B)” value (SERT A486E-K490A; A486E-K490A, log conc -5.432) was 0.4714 and 0.3471 and 0.3282 and the “[^3H]IMI dissociation relative to control (source data Fig 4B)” value (SERT A486E-K490A; A486E-K490A, log conc -5.91) was 0.664 and 0.6181 and 0.6285. The “[^3H]IMI dissociation relative to control (source data Fig 4B)” value (SERT A486E-K490A; A486E-K490A, log conc -6.386) was 0.93 and 0.8402 and 0.7554, the “[^3H]IMI dissociation relative to control (source data Fig 4B)” value (SERT A486E-K490A; A486E-K490A, log conc -6.863) was 1.01 and 0.967 and 0.9554 and the “[^3H]IMI dissociation relative to control (source data Fig 4B)” value (SERT A486E-K490A; A486E-K490A, log conc -7.34) was 1 and 1.03 and 0.8514. For the same molecule, the “[^3H]IMI dissociation relative to control (source data Fig 4B)” value (SERT A486E-K490A; A486E-K490A, log conc -7.817) was 1.04 and 0.999 and 0.8949, the IC50 (SERT A486E-K490A; SERT A486E-K490A, read-out: Lu AF60097 allosteric potency ([^3H]IMI dissociation IC50)) was 2400 nM and the “ΔAP (mut/WT), change in allosteric potency relative to SERT WT” value (SERT F556L; F556L, [^3H]IMI dissociation) was 10. The IC50 (SERT F556L; SERT F556L (TM11), read-out: Lu AF60097 allosteric potency ([^3H]IMI dissociation IC50)) was 330 nM, the “ΔAP (mut/WT), change in allosteric potency relative to SERT WT” value (SERT I179F; I179F, [^3H]IMI dissociation) was 14 and the “[^3H]IMI dissociation relative to control (source data Fig 4B)” value (SERT I179F; I179F, log conc -7.817) was 0.8727 and 0.9098. For the same molecule, the IC50 (SERT I179F; SERT I179F (TM3), read-out: Lu AF60097 allosteric potency ([^3H]IMI dissociation IC50)) was 440 nM, the “ΔAP (mut/WT), change in allosteric potency relative to SERT WT” value (SERT D328N; D328N, [^3H]IMI dissociation) was 1.7 and the IC50 (SERT D328N; SERT D328N (TM6), read-out: Lu AF60097 allosteric potency ([^3H]IMI dissociation IC50)) was 54 nM. For the same molecule, the “ΔAP (mut/WT), change in allosteric potency relative to SERT WT” value (SERT F556R [2]; F556R, [^3H]IMI dissociation) was over 300, the “Lu AF60097 allosteric potency ([^3H]IMI dissociation IC50)” value (SERT F556R [2]; SERT F556R (TM11)) was “complete ablation of the allosteric potency” and the IC50 (SERT F556R [2]; SERT F556R (TM11), read-out: Lu AF60097 allosteric potency ([^3H]IMI dissociation IC50)) was at least 10000 nM. The “ΔAP (mut/WT), change in allosteric potency relative to SERT WT” value (SERT A331D; A331D, [^3H]IMI dissociation) was 293, the “[^3H]IMI dissociation relative to control (source data Fig 4B)” value (SERT A331D; A331D, log conc -4.478) was 0.2078 and 0.1902 and 0.1898 and the “[^3H]IMI dissociation relative to control (source data Fig 4B)” value (SERT A331D; A331D, log conc -4.955) was 0.4404 and 0.4549 and 0.4274. The “[^3H]IMI dissociation relative to control (source data Fig 4B)” value (SERT A331D; A331D, log conc -5.432) was 0.7451 and 0.6969 and 0.749, the “[^3H]IMI dissociation relative to control (source data Fig 4B)” value (SERT A331D; A331D, log conc -5.91) was 0.8665 and 0.8882 and 0.9518 and the “[^3H]IMI dissociation relative to control (source data Fig 4B)” value (SERT A331D; A331D, log conc -6.386) was 0.9951 and 1.0052 and 1.0336. The “[^3H]IMI dissociation relative to control (source data Fig 4B)” value (SERT A331D; A331D, log conc -6.863) was 1.0294 and 1.1129 and 0.9351, the “[^3H]IMI dissociation relative to control (source data Fig 4B)” value (SERT A331D; A331D, log conc -7.34) was 0.9855 and 0.9441 and 1.0485 and the IC50 (SERT A331D; SERT A331D (TM6), read-out: Lu AF60097 allosteric potency ([^3H]IMI dissociation IC50)) was 9100 nM. The “ΔAP (mut/WT), change in allosteric potency relative to SERT WT” value (SERT A486E; A486E, [^3H]IMI dissociation) was 15, the IC50 (SERT A486E; SERT A486E (TM10), read-out: Lu AF60097 allosteric potency ([^3H]IMI dissociation IC50)) was 470 nM and the “ΔAP (mut/WT), change in allosteric potency relative to SERT WT” value (SERT L406E; L406E, [^3H]IMI dissociation) was 21. The “[^3H]IMI dissociation relative to control (source data Fig 4B)” value (SERT L406E; L406E, log conc -5.91) was 0.3505 and 0.3638 and 0.3072, the “[^3H]IMI dissociation relative to control (source data Fig 4B)” value (SERT L406E; L406E, log conc -6.386) was 0.6157 and 0.6402 and 0.5827 and the “[^3H]IMI dissociation relative to control (source data Fig 4B)” value (SERT L406E; L406E, log conc -6.863) was 0.8533 and 0.8586 and 0.8107. The “[^3H]IMI dissociation relative to control (source data Fig 4B)” value (SERT L406E; L406E, log conc -7.34) was 0.9622 and 0.9861 and 1.0073, the “[^3H]IMI dissociation relative to control (source data Fig 4B)” value (SERT L406E; L406E, log conc -7.817) was 1.016 and 1.0012 and 1.0446 and the IC50 (SERT L406E; SERT L406E (EL4), read-out: Lu AF60097 allosteric potency ([^3H]IMI dissociation IC50)) was 650 nM. For the same molecule, the “ΔAP (mut/WT), change in allosteric potency relative to SERT WT” value (SERT E494K; E494K, [^3H]IMI dissociation) was 286, the “[^3H]IMI dissociation relative to control (source data Fig 4B)” value (SERT E494K; E494K, log conc -5.432) was 0.0801 and 0.1174 and 0.0764 and the “[^3H]IMI dissociation relative to control (source data Fig 4B)” value (SERT E494K; E494K, log conc -5.91) was 0.1958 and 0.2217 and 0.1263. The “[^3H]IMI dissociation relative to control (source data Fig 4B)” value (SERT E494K; E494K, log conc -6.386) was 0.3078 and 0.3762 and 0.3174, the “[^3H]IMI dissociation relative to control (source data Fig 4B)” value (SERT E494K; E494K, log conc -6.863) was 0.5705 and 0.5743 and 0.4488 and the “[^3H]IMI dissociation relative to control (source data Fig 4B)” value (SERT E494K; E494K, log conc -7.34) was 0.7153 and 0.7476 and 0.7791. The “[^3H]IMI dissociation relative to control (source data Fig 4B)” value (SERT E494K; E494K, log conc -7.817) was 0.8258 and 0.83 and 0.9008, the “[^3H]IMI dissociation relative to control (source data Fig 4B)” value (SERT E494K; E494K, log conc -8.294) was 0.8606 and 0.9262 and 0.8913 and the IC50 (SERT E494K; SERT E494K (TM10), read-out: Lu AF60097 allosteric potency ([^3H]IMI dissociation IC50)) was 8900 nM.
